Reference: patent US12421229B2, “Hydropyrido[1,2-α]pyrazine compounds for the treatment of autoimmune disease” (Hoffmann-La Roche Inc., priority 2019, dated 2025)

What was measured:
human TLR7 = biological target: T1, human TLR7 (Homo sapiens, UniProt Q9NYK1); assay: HEK293-Blue-hTLR-7 cells assay; assay type: cell-based; conditions: HEK293-Blue-hTLR7 cells, R848 stimulation, 20 hrs, SEAP reporter; read-out: HEK/hTLR7 IC50
T1 construct: host or cells: HEK293 (HEK-Blue hTLR7)
T1 sequence (Q9NYK1 27-1049): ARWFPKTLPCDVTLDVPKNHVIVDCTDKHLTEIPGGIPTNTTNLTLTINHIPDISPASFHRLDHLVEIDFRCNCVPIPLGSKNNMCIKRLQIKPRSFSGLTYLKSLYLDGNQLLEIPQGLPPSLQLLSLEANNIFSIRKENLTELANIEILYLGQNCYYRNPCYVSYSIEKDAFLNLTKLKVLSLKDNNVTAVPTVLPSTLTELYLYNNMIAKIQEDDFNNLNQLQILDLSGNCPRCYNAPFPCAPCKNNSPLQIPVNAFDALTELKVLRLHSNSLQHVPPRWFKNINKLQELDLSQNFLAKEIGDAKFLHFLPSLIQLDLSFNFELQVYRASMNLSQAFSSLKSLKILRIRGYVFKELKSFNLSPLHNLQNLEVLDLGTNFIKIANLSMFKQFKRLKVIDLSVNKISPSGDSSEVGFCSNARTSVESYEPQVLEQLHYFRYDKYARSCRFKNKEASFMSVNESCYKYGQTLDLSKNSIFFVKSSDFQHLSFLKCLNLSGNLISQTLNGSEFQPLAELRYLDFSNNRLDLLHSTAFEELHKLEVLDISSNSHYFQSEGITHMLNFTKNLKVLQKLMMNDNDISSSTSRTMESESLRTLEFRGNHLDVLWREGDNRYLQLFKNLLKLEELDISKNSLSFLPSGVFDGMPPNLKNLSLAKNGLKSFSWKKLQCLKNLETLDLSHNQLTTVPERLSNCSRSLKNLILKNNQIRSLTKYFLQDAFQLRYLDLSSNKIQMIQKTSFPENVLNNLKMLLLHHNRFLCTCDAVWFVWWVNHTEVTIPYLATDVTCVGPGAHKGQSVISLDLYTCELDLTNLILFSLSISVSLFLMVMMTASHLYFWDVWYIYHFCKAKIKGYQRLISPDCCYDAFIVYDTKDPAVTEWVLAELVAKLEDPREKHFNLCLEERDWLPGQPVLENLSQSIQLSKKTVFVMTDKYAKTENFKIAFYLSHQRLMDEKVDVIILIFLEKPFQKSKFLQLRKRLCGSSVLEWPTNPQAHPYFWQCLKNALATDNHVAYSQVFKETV
Description: A stable HEK293-Blue-hTLR-7 cell line was purchased from InvivoGen (Cat. #: hkb-htlr7, San Diego, California, USA). These cells were originally designed for studying the stimulation of human TLR7 by monitoring the activation of NF-κB. A SEAP (secreted embryonic alkaline phosphatase) reporter gene was placed under the control of the IFN-β minimal promoter fused to five NF-κB and AP-1-binding sites. The SEAP was induced by activating NF-κB and AP-1 via stimulating HEK-Blue hTLR7 cells with TLR7 ligands. Therefore the reporter expression was declined by TLR7 antagonist under the stimulation of a ligand, such as R848 (Resiquimod), for incubation of 20 hrs. The cell culture supernatant SEAP reporter activity was determined using QUANTI-Blue™ kit (Cat. #: rep-qb1, Invivogen, San Diego, Ca, USA) at a wavelength of 640 nm, a detection medium that turns purple or blue in the presence of alkaline phosphatase.
HEK293-Blue-hTLR7 cells were incubated at a density of 250,000˜450,000 cells/mL in a volume of 170 μL in a 96-well plate in Dulbecco's Modified Eagle's medium (DMEM) containing 4.5 g/L glucose, 50 U/mL penicillin, […], […], 2 mM L-glutamine, 10% (v/v) heat-inactivated fetal bovine serum with addition of 20 μL test compound in a serial dilution in the presence of final DMSO at 1% and 10 μL of 20 uM R848 in above DMEM, perform incubation under 37° C. in a CO2 incubator for 20 hrs. Then 20 μL of the supernatant from each well was incubated with 180 μL Quanti-blue substrate solution at 37° C. for 2 hrs and the absorbance was read at 620˜655 nm using a spectrophotometer. The signaling pathway that TLR7 activation leads to downstream NF-κB activation has been widely accepted, and therefore similar reporter assay was modified for evaluating TLR7 antagonist.

CYP2D6 = biological target: T2, CYP2D6 (Homo sapiens, UniProt P10635); assay: CYP inhibition assay in human liver microsome, CYP2D6; assay type: in vitro ADME; conditions: percentage inhibition, substrate Dextromethorphan 5 μM
T2 construct: tissue BD-Gentest 452117; host or cells: human liver microsomes
Procedure: (§1) This is a high throughput screening assay used for assessment of reversible inhibition of CYP2C9, CYP2D6, and CYP3A4 activity of test compounds in human liver microsome (HLM) in early discovery stage.
(§2) 10 mM DMSO stock solutions of test compounds were diluted in DMSO to generate 2 mM intermediate stock solution. 250 nL of intermediate stock solution were transferred in duplicate into 3 separate 384 well microtitre plates (assay-ready plates). A mixture of HLM and each substrate was made up. 45 μL of HLM substrate mix was then transferred to each well of an assay ready plate and mixed. The negative (solvent) and positive controls (standard inhibitor for each CYP) were included in each assay ready plate. The assay ready plate was warmed to 37° C. in an incubator over 10 minutes. 5 μL pre-warmed NADPH regenerating system was added to each incubation well to start the reaction. Final incubation volume was 50 μL. The assay plate then was placed back in the 37° C. incubator. After incubation (10 minutes for CYP2D6) for 5 minutes, incubates were quenched by addition of 50 μL 100% acetonitrile containing internal standards (400 ng/mL 13C6-4′-OH-Diclofenac, 20 ng/mL D3-Dextrorphan and 20 ng/mL D4-1′OH-Midazolam). The supernatants were collected for RapidFire/MS/MS analysis.
(§3) RapidFire online solid phase extraction/sample injection system (Agilent) coupled with API4000 triple quadrupole mass spectrometer (AB Sciex) were used for sample analysis. The mobile phase composed of acetonitrile and water supplemented with 0.1% formic acid. A C4 solid phase extraction cartridge is used for sample separation. MS detection is achieved in positive ion MRM mode.
(§4) Peak areas for substrate, metabolite and internal standard are determined using the RapidFire integrator software (version 3.6.12009.12296). Peak area ratios (PAR) of metabolite and internal standard (stable-labelled metabolite) are then calculated. The measurement window for each experiment is then defined:
(§5) PAR (0% activity)=average PAR for all incubations containing concentrated inhibitor;
(§6) Par (100% activity)=average PAR for all incubations containing no inhibitor (DMSO controls);
(§7) % Activity (test inhibitor)=[PAR(test inhibitor)−PAR(0% activity)/PAR(100% activity)−PAR(0% activity)];
(§8) % Inhibition (test inhibitor)=100−% Activity (test inhibitor).

CYP3A4 = biological target: T3, CYP3A4 (Homo sapiens, UniProt P08684); assay: CYP inhibition assay in human liver microsome, CYP3A4; assay type: in vitro ADME; conditions: percentage inhibition, substrate Midazolam 5 μM
T3 construct: tissue BD-Gentest 452117; host or cells: human liver microsomes
Procedure: as §1, §2, §3, §4, §5, §6, §7, §8

T3 sequence (P08684 whole entry): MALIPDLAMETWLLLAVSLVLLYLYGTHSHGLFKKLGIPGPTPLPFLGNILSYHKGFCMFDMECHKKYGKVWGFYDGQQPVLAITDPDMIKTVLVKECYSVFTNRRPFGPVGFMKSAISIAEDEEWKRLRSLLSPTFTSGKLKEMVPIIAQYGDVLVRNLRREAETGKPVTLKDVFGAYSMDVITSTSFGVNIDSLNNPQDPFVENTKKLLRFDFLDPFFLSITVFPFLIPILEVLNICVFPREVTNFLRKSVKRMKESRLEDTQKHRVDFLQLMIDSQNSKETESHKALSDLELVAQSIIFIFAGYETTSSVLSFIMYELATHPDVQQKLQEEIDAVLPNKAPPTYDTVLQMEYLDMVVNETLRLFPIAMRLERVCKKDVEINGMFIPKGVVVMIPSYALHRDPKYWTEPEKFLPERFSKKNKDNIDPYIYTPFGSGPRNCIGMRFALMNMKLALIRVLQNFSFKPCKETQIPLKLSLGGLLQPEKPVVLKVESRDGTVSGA
T2 sequence (P10635 whole entry): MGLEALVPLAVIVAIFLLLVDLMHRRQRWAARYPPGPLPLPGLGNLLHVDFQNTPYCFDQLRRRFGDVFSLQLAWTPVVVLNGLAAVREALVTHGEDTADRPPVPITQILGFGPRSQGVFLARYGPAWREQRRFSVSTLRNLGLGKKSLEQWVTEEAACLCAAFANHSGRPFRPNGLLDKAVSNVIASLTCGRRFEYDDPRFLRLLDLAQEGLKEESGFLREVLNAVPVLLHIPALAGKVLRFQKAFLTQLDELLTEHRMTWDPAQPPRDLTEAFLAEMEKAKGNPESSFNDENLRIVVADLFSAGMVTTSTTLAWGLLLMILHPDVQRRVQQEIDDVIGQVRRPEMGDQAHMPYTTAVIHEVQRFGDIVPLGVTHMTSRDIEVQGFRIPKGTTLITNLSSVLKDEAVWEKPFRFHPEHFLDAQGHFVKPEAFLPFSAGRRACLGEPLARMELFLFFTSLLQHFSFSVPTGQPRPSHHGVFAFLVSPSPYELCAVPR

Compound: C[C@@H]1CN(c2ccc(C#N)c3ncccc23)C[C@@H]2C[C@H](c3ccc(N4CCNCC4)nc3)CCN21 (stereo in doubt) [Example 2, 5-[(4R,8R)-4-methyl-8-(6-piperazin-1-yl-3-pyridyl)-1,3,4,6,7,8,9,9a-octahydropyrido[1,2-a]pyrazin-2-yl]quinoline-8-carbonitrile]
- IC50 (human TLR7): 4 nM
- CYP (%) 2D6 (CYP2D6): −5.5%
- CYP (%) 3A4 (CYP3A4): 38%

Compound: CO[C@H]1CN(c2ccc([C@@H]3CCN4[C@@H](C3)CN(c3ccc(C#N)c5ncccc35)C[C@H]4C)cn2)C[C@@H]1N [Example 6, 5-[(4R,8R,9aS)-8-[6-[(3S,4S)-3-amino-4-methoxy-pyrrolidin-1-yl]-3-pyridyl]-4-methyl-1,3,4,6,7,8,9,9a-octahydropyrido[1,2-a]pyrazin-2-yl]quinoline-8-carbonitrile]
- IC50 (human TLR7): 41 nM
- CYP (%) 2D6 (CYP2D6): −12.5%
- CYP (%) 3A4 (CYP3A4): 11%

Compound: C[C@@H]1CN(c2ccc(C#N)c3ncccc23)C[C@@H]2C[C@H](N3CC(c4ccc(N5CCNCC5)cc4)C3)CCN21 [Example 9, 5-[(4R,8R,9aS)-4-methyl-8-[3-(4-piperazin-1-ylphenyl)azetidin-1-yl]-1,3,4,6,7,8,9,9a-octahydropyrido[1,2-a]pyrazin-2-yl]quinoline-8-carbonitrile]
- IC50 (human TLR7): 27 nM
- CYP (%) 2D6 (CYP2D6): −2%
- CYP (%) 3A4 (CYP3A4): 9.5%

Compound: C[C@@H]1CN(c2ccc(C#N)c3ncccc23)C[C@@H]2C[C@@H](Oc3ccc(N4CCNCC4)cn3)CCN21 [Example 11, 5-[(4R,8S,9aS)-4-methyl-8-[(5-piperazin-1-yl-2-pyridyl)oxy]-1,3,4,6,7,8,9,9a-octahydropyrido[1,2-a]pyrazin-2-yl]quinoline-8-carbonitrile]
- IC50 (human TLR7): 46 nM
- CYP (%) 2D6 (CYP2D6): −24.5%
- CYP (%) 3A4 (CYP3A4): 12%

Compound: CO[C@H]1CN(c2ccc([C@@H]3CCN4[C@@H](C3)CN(c3ccc(C#N)c5ncccc35)C[C@H]4C)cn2)C[C@H]1N [Example 12, 5-[(4R,8R,9aS)-8-[6-[(3R,4S)-3-amino-4-methoxy-pyrrolidin-1-yl]-3-pyridyl]-4-methyl-1,3,4,6,7,8,9,9a-octahydropyrido[1,2-a]pyrazin-2-yl]quinoline-8-carbonitrile]
- IC50 (human TLR7): 17 nM
- CYP (%) 2D6 (CYP2D6): 0%
- CYP (%) 3A4 (CYP3A4): 37.5%

Compound: CO[C@@H]1CN(c2ccc([C@@H]3CCN4[C@@H](C3)CN(c3ccc(C#N)c5ncccc35)C[C@H]4C)cn2)C[C@H]1N [Example 14, 5-[(4R,8R,9aS)-8-[6-[(3R,4R)-3-amino-4-methoxy-pyrrolidin-1-yl]-3-pyridyl]-4-methyl-1,3,4,6,7,8,9,9a-octahydropyrido[1,2-a]pyrazin-2-yl]quinoline-8-carbonitrile]
- IC50 (human TLR7): 23 nM
- CYP (%) 2D6 (CYP2D6): −0.5%
- CYP (%) 3A4 (CYP3A4): 19.5%

Compound: C[C@@H]1CN(c2ccc(C#N)c3ncccc23)C[C@@H]2C[C@H](c3ccc(N4C[C@@H](N)[C@@H](F)C4)nc3)CCN21 [Example 19, 5-[(4R,8R,9aS)-8-[6-[(3R,4S)-3-amino-4-fluoro-pyrrolidin-1-yl]-3-pyridyl]-4-methyl-1,3,4,6,7,8,9,9a-octahydropyrido[1,2-a]pyrazin-2-yl]quinoline-8-carbonitrile]
- IC50 (human TLR7): 15 nM
- CYP (%) 2D6 (CYP2D6): −6%
- CYP (%) 3A4 (CYP3A4): 30%

Compound: C[C@@H]1CN(c2ccc(C#N)c3ncccc23)C[C@@H]2C[C@H](Nc3ccc(C[C@@H]4CNCCO4)cc3)CCN21 [Example 21, 5-[(4R,8R,9aS)-4-methyl-8-[4-[[(2R)-morpholin-2-yl]methyl]anilino]-1,3,4,6,7,8,9,9a-octahydropyrido[1,2-a]pyrazin-2-yl]quinoline-8-carbonitrile]
- IC50 (human TLR7): 20 nM
- CYP (%) 2D6 (CYP2D6): 9%
- CYP (%) 3A4 (CYP3A4): 15.5%

Compound: C[C@@H]1CN(c2ccc(C#N)c3ncccc23)C[C@@H]2C[C@H](c3ccc([C@@H]4CNCCO4)cc3)CCN21 [Example 27, 5-[(4R,8R,9aS)-4-methyl-8-[4-[(2R)-morpholin-2-yl]phenyl]-1,3,4,6,7,8,9,9a-octahydropyrido[1,2-a]pyrazin-2-yl]quinoline-8-carbonitrile]
- IC50 (human TLR7): 4 nM
- CYP (%) 2D6 (CYP2D6): 8%
- CYP (%) 3A4 (CYP3A4): 37%

Compound: CO[C@H]1CN(c2ccc(C3CN([C@@H]4CCN5[C@@H](C4)CN(c4ccc(C#N)c6ncccc46)C[C@H]5C)C3)cc2)C[C@H]1N [Example 32, 5-[(4R,8R,9aS)-8-[3-[4-[(3R,4S)-3-amino-4-methoxy-pyrrolidin-1-yl]phenyl]azetidin-1-yl]-4-methyl-1,3,4,6,7,8,9,9a-octahydropyrido[1,2-a]pyrazin-2-yl]quinoline-8-carbonitrile]
- IC50 (human TLR7): 48 nM

Compound: [2H]c1ccc2c(N3C[C@@H]4C[C@@H](N5CC(c6ccc(N7C[C@@H](N)[C@H](OC)C7)cc6)C5)CCN4[C@H](C)C3)ccc(C#N)c2n1 [Example 36]
- IC50 (human TLR7): 30 nM
